The record followed here is article PMC3731522, “Arginase II inhibitory activity of flavonoid compounds from Scutellaria indica” (Archives of Pharmacal Research, 2013).

The first data set concerns the target T1, Arginase II (Mus musculus, UniProt O08691).
T1 construct: Tissue lysates of kidney were prepared using lysis buffer; from tissue; host or cells: kidney of C57BL/6 mice
T1 sequence (O08691 23-354): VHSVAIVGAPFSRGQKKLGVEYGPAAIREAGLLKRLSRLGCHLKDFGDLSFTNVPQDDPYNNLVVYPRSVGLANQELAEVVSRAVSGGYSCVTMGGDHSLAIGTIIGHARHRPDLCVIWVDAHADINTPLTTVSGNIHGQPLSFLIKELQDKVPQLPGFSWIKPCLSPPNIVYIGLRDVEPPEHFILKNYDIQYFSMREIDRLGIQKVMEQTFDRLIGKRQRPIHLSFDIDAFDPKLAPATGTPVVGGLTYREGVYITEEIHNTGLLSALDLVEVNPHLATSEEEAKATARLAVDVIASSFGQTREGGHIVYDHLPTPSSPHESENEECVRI
As to the kind of experiment: Arginase II inhibitory activity, enzyme solution from mouse kidney lysate, urea determined at 550 nm. It is filed as biochemical. To be noted: kidney lysates of C57BL/6 mice; 50 % inhibition relative to vehicle control; average of three repeated experiments. The method, then:
Arginase II solution was prepared from kidney lysates of anesthetized C57BL/6 mice (White et al. [2006]). Tissue lysates of kidney were prepared using lysis buffer (50 mM Tris–HCl, pH7.5, 0.1 mM EDTA and protease inhibitors) by homogenization at 4 °C followed by centrifugation for 20 min at 14,000×g at 4 °C. Briefly, […] lysates were added to Tris–HCl. The hydrolysis reaction of L-arginine by Arg was performed by incubating the mixture containing activated Arg and was stopped by adding acid solution. For calorimetric determination of urea, α-isonitrosopropiophenone was added, and the mixture was heated at 100 °C for 45 min. After placing the sample in the dark for 10 min at room temperature, the urea concentration was determined spectrophotometrically by the absorbance at 550 nm (White et al. [2006]).
Take `COc1ccc([C@H]2C[C@H](OC)c3c(OC)c(OC)c(OC)c(OC)c3O2)cc1` [Compound 1, (2R,4S)-4,5,6,7,8,4′-hexamethoxylflavan]: the half-inhibitory concentration (IC50) is over 200 µM.
Same read-out and setting: with `COc1c(O)cc(O)c2c(=O)cc(-c3ccccc3)oc12` [Compound 2, wogonin] the figure was over 200 µM; with `COc1ccccc1[C@@H]1CC(=O)c2c(O)cc(O)c(OC)c2O1` [Compound 3, (2S)-5,7-dihydroxy-8,2′-dimethoxyflavanone], 25.1 ± 2.6 µM; with `O=c1cc(-c2ccc(O)cc2)oc2cc(O)cc(O)c12` [Compound 4, apigenin], over 200 µM.
The same measure, in the same setting: with `COc1cc(O)c2c(c1OC)O[C@H](c1cc(O)ccc1O)CC2=O` [Compound 5, (2S)-5,2′,5′-trihydroxy-7,8-dimethoxyflavanone] the figure was 11.6 ± 1.2 µM; with `O=C1C[C@@H](c2ccc(O)cc2)Oc2cc(O)cc(O)c21` [Compound 6, naringenin], over 200 µM.
On the same count and under the same terms, with `O=C1C[C@@H](c2ccc(O)cc2)Oc2cc(O)cc(O[C@@H]3O[C@H](CO)[C@@H](O)[C@H](O)[C@H]3O)c21` [Compound 7, naringenin-5-O-β-D-glucopyranoside] the figure was over 200 µM; with `COc1cc(O)c2c(c1OC)OC(c1cc(O)ccc1OC1OC(CO)C(O)C(O)C1O)CC2=O` [Compound 8, (2S)-5,5′-dihydroxy-7,8-dimethoxyflavanone-2′-O-β-D-glucopyranoside], over 200 µM; with `OC[C@H]1O[C@@H](Oc2cc(/C=C/c3cc(O)cc(O)c3)ccc2O)[C@H](O)[C@@H](O)[C@@H]1O` [PG, piceatannol-3′-O-β-D-glucopyranoside, reference compound], 1 ± 0.1 µM.

Tested on in another data set: not given
Assay: not given
Conditions: not given
As for `COc1ccc([C@H]2C[C@H](OC)c3c(OC)c(OC)c(OC)c(OC)c3O2)cc1` [Compound 1, (2R,4S)-4,5,6,7,8,4′-hexamethoxylflavan], the melting point was in the range of 218 to 220 °C.
